molecular target: Carbonic anhydrase 1 (Homo sapiens, UniProt P00915); test: Inhibition of human recombinant carbonic anhydrase 1 preincubated for 15 mins by stopped flow CO2 hydration assay
Sequence (P00915 whole entry): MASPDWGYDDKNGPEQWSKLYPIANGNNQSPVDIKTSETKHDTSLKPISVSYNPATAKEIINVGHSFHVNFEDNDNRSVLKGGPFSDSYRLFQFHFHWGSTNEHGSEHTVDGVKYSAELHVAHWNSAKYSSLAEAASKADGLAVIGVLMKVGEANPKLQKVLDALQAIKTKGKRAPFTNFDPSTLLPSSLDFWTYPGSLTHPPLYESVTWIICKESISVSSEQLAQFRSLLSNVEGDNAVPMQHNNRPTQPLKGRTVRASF

SMILES | Ki [nM]
COc1ccc2c(=O)n(-c3ccc(S(N)(=O)=O)cc3)c(S)nc2c1 | > 10000

molecular target: Carbonic anhydrase 9 (Homo sapiens, UniProt Q16790); test: Inhibition of human recombinant carbonic anhydrase 9 preincubated for 15 mins by stopped flow CO2 hydration assay

SMILES | Ki [nM]
Cc1ccc2nc(S)n(-c3ccc(S(N)(=O)=O)cc3)c(=O)c2c1 | 16.2
NS(=O)(=O)c1ccc(-n2c(S)nc3cc(Br)ccc3c2=O)cc1 | 163
COc1ccc2nc(S)n(-c3ccc(S(N)(=O)=O)cc3)c(=O)c2c1 | 3.7
NS(=O)(=O)c1ccc(-n2c(S)nc3c(Cl)cccc3c2=O)cc1 | 43.9
NS(=O)(=O)c1ccc(-n2c(S)nc3ccc(Cl)cc3c2=O)cc1 | 34.9
NS(=O)(=O)c1ccc(-n2c(S)nc3cc(Cl)ccc3c2=O)cc1 | 157
NS(=O)(=O)c1ccc(-n2c(S)nc3c(Br)cccc3c2=O)cc1 | 4.7
NS(=O)(=O)c1ccc(-n2c(S)nc3c(I)cccc3c2=O)cc1 | 14.5
COc1cccc2c(=O)n(-c3ccc(S(N)(=O)=O)cc3)c(S)nc12 | 5.1
Cc1cc(C)c2nc(S)n(-c3ccc(S(N)(=O)=O)cc3)c(=O)c2c1 | 17.5
COc1ccc2c(=O)n(-c3ccc(S(N)(=O)=O)cc3)c(S)nc2c1OC | 49.3
Cc1cccc2c(=O)n(-c3ccc(S(N)(=O)=O)cc3)c(S)nc12 | 35.6
NS(=O)(=O)c1ccc(-n2c(S)nc3ccc(Br)cc3c2=O)cc1 | 275
NS(=O)(=O)c1ccc(-n2c(S)nc3c(F)cccc3c2=O)cc1 | 45.4
COc1cc2c(=O)n(-c3ccc(S(N)(=O)=O)cc3)c(S)nc2c(OC)c1OC | 50.4
